Test results published in US20120114745A1, “METHOD FOR TREATING OR AMELIORATING MUCOCUTANEOUS OR OCULAR TOXICITIES” (priority 2009, published 2012).

System: CCL2
Assay: ELISA of CCL2 levels in the supernatant of keratinocyte cultures treated with EGFR inhibitor PD168393 and/or HDAC inhibitors
Type: cell-based
Details: then PD168393 24 hours (FIG. 1)
Text: Results are expressed as the mean of three independent experiments ±SD.

SMILES	effect on PD168393-induced up-regulation of CCL2 levels (keratinocytes pre-treated with HDAC inhibitor 5 nM for 2 hours)	effect on PD168393-induced up-regulation of CCL2 levels (keratinocytes pre-treated with HDAC inhibitor for 2 hours)
CC(/C=C/C(=O)NO)=C\[C@@H](C)C(=O)c1ccc(N(C)C)cc1 [trichostatin A]	suppressed	–
CCCC(CCC)C(=O)O [valproic acid]	–	suppressed
